Source: ChEMBL document CHEMBL1201862, “PubChem BioAssay data set” (2004)
Active and inactive are the calls of the source.

How the values were obtained:
A-375 [1] = assay: MITF: Counter assay: A375 proliferation Measured in Cell-Based System Using Plate Reader - 2084-03_Inhibitor_Dose_DryPowder_Activity. [Related pubchem assays (depositor defined):AID488944]; assay type: functional; settings: Homo sapiens
A-375 [2] = assay: proliferation inhibition in MITF-low A375 cells – cell-based, cherry-pick samples, set 2, counter-screen for MITF modulator project, dose response (AID 540335); assay type: functional; settings: Homo sapiens
CAAX prenyl protease 1 = CAAX prenyl protease 1 (Saccharomyces cerevisiae S288c, UniProt P47154); assay: yeast CAAX protease Ste24 inhibition – biochemical, S. cerevisiae, plate reader, cherry-pick, dose response (AID 488815)
Sequence of CAAX prenyl protease 1 (P47154 whole entry): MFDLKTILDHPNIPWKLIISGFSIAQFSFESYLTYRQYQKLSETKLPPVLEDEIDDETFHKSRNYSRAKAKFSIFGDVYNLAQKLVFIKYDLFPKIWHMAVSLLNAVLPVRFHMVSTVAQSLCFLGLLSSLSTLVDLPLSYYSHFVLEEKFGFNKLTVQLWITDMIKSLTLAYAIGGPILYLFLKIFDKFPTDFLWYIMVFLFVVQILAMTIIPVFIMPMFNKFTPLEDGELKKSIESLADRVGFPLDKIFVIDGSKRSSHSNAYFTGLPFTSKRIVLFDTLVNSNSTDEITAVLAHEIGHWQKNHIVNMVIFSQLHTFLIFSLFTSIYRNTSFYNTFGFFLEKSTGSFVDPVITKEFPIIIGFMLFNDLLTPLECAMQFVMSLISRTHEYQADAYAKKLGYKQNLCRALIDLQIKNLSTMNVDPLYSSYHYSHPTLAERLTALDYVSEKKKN

CAAX prenyl protease 2 [3] = biological target: T1, CAAX prenyl protease 2 (Saccharomyces cerevisiae S288c, UniProt Q03530); assay type: biochemical
T1 sequence (Q03530 whole entry): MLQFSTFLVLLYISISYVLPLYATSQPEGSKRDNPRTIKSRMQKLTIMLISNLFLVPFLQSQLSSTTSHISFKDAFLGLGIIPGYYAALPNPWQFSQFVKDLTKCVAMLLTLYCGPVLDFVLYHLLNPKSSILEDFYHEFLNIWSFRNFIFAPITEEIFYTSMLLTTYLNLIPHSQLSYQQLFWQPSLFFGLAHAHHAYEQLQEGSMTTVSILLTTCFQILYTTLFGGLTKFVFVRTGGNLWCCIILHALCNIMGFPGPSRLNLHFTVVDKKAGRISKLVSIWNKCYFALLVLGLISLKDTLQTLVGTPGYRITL

CAAX prenyl protease 2 [4] = biological target: CAAX prenyl protease 2 (Homo sapiens, UniProt Q9Y256); assay: inhibition of Ras-converting CAAX protease Rce1 – biochemical, yeast membranes, quenched-peptide fluorescence, cherry-pick, dose response (AID 588849)
Sequence of CAAX prenyl protease 2 (Homo sapiens, UniProt Q9Y256) (Q9Y256 whole entry): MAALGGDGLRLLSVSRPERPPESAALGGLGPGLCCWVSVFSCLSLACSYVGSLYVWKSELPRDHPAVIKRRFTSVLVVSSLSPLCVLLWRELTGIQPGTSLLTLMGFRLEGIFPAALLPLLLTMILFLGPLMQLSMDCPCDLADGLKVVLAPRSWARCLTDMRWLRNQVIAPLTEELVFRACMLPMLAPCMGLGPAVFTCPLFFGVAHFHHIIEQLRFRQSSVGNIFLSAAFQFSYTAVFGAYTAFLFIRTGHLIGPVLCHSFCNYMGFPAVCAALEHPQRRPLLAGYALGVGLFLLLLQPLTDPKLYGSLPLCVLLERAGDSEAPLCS

[5] = biological target: T2, Dual specificity protein phosphatase 6 (Rattus norvegicus, UniProt Q64346); assay type: functional
T2 sequence (Q64346 whole entry): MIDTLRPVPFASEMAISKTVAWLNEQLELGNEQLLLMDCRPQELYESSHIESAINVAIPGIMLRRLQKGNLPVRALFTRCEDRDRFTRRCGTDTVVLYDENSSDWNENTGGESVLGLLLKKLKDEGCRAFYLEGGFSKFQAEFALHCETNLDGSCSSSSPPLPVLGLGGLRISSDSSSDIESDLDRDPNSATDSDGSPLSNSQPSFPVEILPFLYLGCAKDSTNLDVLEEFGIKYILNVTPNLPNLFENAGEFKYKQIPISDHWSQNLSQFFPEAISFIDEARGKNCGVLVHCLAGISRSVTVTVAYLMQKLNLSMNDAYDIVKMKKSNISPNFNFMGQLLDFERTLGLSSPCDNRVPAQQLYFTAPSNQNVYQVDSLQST

[6] = biological target: Glyceraldehyde-3-phosphate dehydrogenase (Homo sapiens, UniProt P04406)
Sequence of Glyceraldehyde-3-phosphate dehydrogenase (P04406 whole entry): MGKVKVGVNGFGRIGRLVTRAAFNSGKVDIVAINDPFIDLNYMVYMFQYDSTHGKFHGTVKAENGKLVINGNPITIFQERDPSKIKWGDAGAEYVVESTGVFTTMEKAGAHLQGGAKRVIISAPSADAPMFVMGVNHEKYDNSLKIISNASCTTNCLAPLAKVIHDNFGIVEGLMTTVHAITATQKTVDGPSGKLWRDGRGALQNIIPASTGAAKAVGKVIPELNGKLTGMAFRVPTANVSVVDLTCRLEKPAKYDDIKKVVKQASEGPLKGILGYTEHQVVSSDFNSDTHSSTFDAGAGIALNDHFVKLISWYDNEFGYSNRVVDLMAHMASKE

[7] = biological target: T2, Dual specificity protein phosphatase 6
[8] = biological target: T3, Tyrosine-protein phosphatase non-receptor type 7 (Homo sapiens, UniProt P35236); assay type: functional
T3 sequence (P35236 whole entry): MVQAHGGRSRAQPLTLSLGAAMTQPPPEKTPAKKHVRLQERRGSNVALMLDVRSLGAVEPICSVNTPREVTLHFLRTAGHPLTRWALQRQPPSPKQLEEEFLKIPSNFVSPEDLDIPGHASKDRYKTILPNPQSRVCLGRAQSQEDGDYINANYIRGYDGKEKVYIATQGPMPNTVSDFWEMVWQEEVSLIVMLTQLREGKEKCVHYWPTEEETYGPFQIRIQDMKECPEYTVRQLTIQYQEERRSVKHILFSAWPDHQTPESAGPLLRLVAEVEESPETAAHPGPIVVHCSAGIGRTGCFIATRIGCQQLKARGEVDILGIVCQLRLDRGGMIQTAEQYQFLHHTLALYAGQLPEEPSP

[9] = biological target: UDP-galactopyranose mutase (Mycobacterium tuberculosis, UniProt P9WIQ1); assay: Inhibitors of Mycobacterium tuberculosis UDP-galactopyranose mutase (UGM) enzyme Measured in Biochemical System Using Plate Reader - 2105-02_Inhibitor_Dose_CherryPick_Activity. [Related pubchem assays (depositor defined):AID504439]
Sequence of UDP-galactopyranose mutase (P9WIQ1 whole entry): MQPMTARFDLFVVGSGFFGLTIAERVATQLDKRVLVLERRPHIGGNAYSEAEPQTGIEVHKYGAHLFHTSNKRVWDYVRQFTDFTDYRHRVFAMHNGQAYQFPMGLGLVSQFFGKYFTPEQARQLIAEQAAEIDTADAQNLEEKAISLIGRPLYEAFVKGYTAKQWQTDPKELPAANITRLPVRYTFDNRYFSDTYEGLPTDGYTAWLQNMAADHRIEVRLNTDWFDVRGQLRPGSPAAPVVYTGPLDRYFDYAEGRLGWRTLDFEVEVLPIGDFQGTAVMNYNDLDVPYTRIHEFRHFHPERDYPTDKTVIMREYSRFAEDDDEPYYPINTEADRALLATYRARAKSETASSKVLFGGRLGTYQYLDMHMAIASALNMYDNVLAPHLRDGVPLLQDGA

[10] = biological target: T4, Corticotropin-releasing factor receptor 2/Corticotropin-releasing factor-binding protein (Homo sapiens, UniProt P24387+Q13324); assay: activators of CRF receptor 2 with binding protein – uHTS hits, confirmation (AID 602473); assay type: functional; settings: read-out: EC50_Mean
T4 sequence (Q13324 whole entry): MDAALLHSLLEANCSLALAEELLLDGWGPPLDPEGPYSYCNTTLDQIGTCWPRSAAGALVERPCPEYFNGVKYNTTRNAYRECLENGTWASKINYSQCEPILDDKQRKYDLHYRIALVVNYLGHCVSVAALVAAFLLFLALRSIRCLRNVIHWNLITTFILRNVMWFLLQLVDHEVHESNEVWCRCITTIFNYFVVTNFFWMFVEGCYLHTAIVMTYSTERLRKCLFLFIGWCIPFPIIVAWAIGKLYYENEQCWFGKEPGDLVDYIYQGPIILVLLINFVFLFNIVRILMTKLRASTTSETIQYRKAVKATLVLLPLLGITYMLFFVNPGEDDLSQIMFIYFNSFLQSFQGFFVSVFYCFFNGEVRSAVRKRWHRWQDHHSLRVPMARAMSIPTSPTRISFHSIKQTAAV
T4 sequence (P24387 whole entry): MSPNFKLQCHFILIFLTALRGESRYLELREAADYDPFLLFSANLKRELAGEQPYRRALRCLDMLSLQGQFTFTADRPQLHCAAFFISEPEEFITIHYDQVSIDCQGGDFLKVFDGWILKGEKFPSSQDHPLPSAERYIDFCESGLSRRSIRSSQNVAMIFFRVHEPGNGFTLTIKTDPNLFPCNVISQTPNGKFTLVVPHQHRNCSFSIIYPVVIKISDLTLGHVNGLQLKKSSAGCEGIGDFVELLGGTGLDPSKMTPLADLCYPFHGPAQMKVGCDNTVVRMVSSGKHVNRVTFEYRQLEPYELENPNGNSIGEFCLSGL

[11] = biological target: T5, Endoribonuclease toxin MazF (Escherichia coli K-12, UniProt P0AE70); assay: substrate-only fluorescence increase artefacts – biochemical, single-stranded RNase substrate, counter-screen for MazEF activator project, dose response (AID 588502); assay type: functional
T5 sequence (P0AE70 whole entry): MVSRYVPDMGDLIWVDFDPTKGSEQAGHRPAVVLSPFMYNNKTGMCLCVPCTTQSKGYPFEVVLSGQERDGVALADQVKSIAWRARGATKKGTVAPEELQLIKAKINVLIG

[12] = biological target: T6, Zinc finger protein mex-5 (Caenorhabditis elegans, UniProt Q9XUB2); assay: potency of MEX-5 RNA-binding blockers – biochemical, C. elegans, fluorescence polarization, dose response (AID 1960)
T6 sequence (Q9XUB2 whole entry): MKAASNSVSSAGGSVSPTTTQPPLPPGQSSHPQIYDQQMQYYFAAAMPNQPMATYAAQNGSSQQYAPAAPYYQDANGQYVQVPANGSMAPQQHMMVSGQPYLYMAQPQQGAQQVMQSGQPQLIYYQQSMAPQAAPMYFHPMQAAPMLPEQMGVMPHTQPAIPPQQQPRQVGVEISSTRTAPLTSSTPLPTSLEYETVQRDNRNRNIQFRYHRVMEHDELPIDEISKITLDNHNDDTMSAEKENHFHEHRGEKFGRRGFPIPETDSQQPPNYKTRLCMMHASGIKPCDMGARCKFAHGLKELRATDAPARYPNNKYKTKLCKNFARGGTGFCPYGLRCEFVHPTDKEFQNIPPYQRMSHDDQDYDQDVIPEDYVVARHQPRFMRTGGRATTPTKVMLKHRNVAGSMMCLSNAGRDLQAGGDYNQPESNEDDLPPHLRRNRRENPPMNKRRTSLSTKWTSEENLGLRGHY

[13] = biological target: T5, Endoribonuclease toxin MazF; assay: activation of MazEF endoribonuclease cleavage – biochemical, fluorescence, single-stranded RNA substrate, uHTS hits, dose response (AID 588481); assay type: functional
[14] = biological target: T7, RNA-binding protein pos-1 (Caenorhabditis elegans, UniProt G5EF15); assay: disruptors of C. elegans POS-1 RNA interaction – biochemical, fluorescence polarization, dose response (AID 1964);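 note: purified POS-1 fused to maltose binding protein made in E. coli; potency of compounds blocking POS-1 binding to fluorescent RNA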
T7 sequence (G5EF15 whole entry): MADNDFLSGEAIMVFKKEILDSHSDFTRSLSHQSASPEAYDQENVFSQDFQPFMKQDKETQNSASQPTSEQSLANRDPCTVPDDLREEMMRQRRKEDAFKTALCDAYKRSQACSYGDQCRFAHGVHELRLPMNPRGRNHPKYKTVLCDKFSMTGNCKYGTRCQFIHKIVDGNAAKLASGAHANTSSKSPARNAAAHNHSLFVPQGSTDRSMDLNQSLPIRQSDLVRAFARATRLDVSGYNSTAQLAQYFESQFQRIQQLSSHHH

[15] = biological target: T8, Short transient receptor potential channel 4 (Mus musculus, UniProt Q9QUQ5); assay: calcium entry via TRPC4 opening agents – cell-based, HEK293 TRPC4/mu-opioid, Fluo-4 calcium, dose response (AID 434937); assay type: functional
T8 sequence (Q9QUQ5 whole entry): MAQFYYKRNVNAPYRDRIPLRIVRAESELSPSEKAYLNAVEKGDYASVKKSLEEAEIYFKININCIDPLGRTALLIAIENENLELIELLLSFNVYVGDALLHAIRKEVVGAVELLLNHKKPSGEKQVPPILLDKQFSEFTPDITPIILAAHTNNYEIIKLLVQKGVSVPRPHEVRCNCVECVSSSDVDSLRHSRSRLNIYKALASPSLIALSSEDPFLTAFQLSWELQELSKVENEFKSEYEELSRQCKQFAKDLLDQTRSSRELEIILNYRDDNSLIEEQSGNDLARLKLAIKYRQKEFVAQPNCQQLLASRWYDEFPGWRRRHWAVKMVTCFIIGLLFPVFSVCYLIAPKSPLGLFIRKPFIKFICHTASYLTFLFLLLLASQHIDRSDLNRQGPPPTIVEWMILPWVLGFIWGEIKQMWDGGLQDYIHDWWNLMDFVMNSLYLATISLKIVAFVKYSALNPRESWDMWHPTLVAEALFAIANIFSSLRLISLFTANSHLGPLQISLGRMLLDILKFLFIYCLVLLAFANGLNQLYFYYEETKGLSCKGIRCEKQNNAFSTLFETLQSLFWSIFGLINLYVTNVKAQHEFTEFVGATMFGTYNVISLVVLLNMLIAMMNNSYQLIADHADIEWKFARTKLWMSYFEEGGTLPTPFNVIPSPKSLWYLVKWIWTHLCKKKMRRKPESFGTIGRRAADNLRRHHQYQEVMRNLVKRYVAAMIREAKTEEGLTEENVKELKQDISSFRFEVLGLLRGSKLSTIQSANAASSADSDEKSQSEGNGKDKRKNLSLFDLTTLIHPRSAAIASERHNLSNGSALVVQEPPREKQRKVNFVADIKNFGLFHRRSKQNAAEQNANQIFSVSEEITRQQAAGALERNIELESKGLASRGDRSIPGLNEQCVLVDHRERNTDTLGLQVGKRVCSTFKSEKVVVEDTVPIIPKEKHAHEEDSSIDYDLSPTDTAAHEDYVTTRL

[16] = biological target: T8, Short transient receptor potential channel 4; assay: block of DAMGO-driven TRPC4 calcium entry – cell-based, HEK293 TRPC4/mu-opioid, Fluo-4 calcium, dose response (AID 434942); assay type: functional;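 note: potency of inhibitors blocking the TRPC4 calcium response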
INS1 = assay: INS-1E survival protection against cytokine death – cell-based, luminescence, retest, dose response (AID 449756); assay type: functional; settings: Rattus norvegicus;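 note: cell death triggered by IL-1 beta plus TNF-alpha plus IFN-gamma mixture; protective hits raise ATP signal compared with cytokine alone wells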
[17] = HEK-293T viability loss, compound-treated – cell-based, uHTS hits, cytotoxicity control for B/T-cell NF-kB inhibitor project, dose response (AID 489019); assay type: functional;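 note: IC50 reflects cytotoxicity as loss of cell viability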
Jurkat = assay: blockers of NF-kB activation in T cells – Jurkat, luciferase reporter, luminescence, B- and T-cell, dose response (AID 489004); assay type: functional, cell-based; settings: Homo sapiens;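 note: NF-kB luciferase reporter Jurkat cells stimulated with PMA plus ionomycin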
[18] = T. cruzi infection blockers in NIH3T3 cells – beta-gal luminescence, NIH3T3 host cells, confirmation (AID 2630); assay type: functional, cell-based; settings: Mus musculus

Structure (SMILES): O=C(Nc1ccc2nn(-c3ccccc3)nc2c1)c1ccco1
- AC50 (A-375 [1]): > 35 µM (active)
- AC50 (A-375 [2]): > 35 µM (active)

Structure (SMILES): CCOC(=O)c1[nH]c2ccc(OC)cc2c1NC(=O)CN1CCC2(CC1)OCCO2
- AC50 (CAAX prenyl protease 1): 6.79 µM (active)
- AC50 (CAAX prenyl protease 2 [3]): 67.8 µM (active)
- AC50 (CAAX prenyl protease 2 [4]): 15.4 µM (active)

Structure (SMILES): Cc1ccc(-n2c(=O)[nH]c(=O)n([C@H](C(N)=O)C(C)C)c2=O)cc1
- IC50 [5]: > 100 µM (inactive)
- IC50 [6]: > 100 µM (not active)
- IC50 [7]: > 100 µM (inactive)
- IC50 [8]: > 100 µM (not active)

Structure (SMILES): O=C(Nc1ccc(Cl)cc1)OCc1ccccn1
- AC50 (A-375 [1]): > 35 µM (active)
- AC50 (A-375 [2]): > 35 µM (active)

Structure (SMILES): COc1ccc2nc3ccccc3nc2c1NC(=O)c1ccc(Cl)cc1Cl
- AC50 [9]: 171 µM (active)
- EC50 [10]: 6.99 µM (active)
- EC50 [11]: 27.6 µM (inactive)
- EC50 [12]: 3.71 µM (inconclusive)
- EC50 [13]: > 99 µM (inactive)
- EC50 [14]: 3.15 µM (inconclusive)

Structure (SMILES): O=C(C[n+]1cc2ccccc2c2ccccc21)c1ccccc1
- EC50 [15]: 4.22 µM (active)
- EC50 [16]: 3.76 µM (active)
- AC50 (CAAX prenyl protease 1): 10.2 µM (active)
- AC50 (CAAX prenyl protease 2 [3]): 5.91 µM (active)

Structure (SMILES): Cc1cc(Cl)c(S(=O)(=O)N2CCN(c3ccc(F)cc3)CC2)cc1OCC(=O)NC1CCCCC1
- AC50 (INS1): 4.82 µM (active)
- IC50 [17]: > 80 µM (inactive)
- IC50 (Jurkat): > 80 µM (inactive)

Structure (SMILES): Cc1ccc(NC(=O)CCC(=O)N/N=C/c2ccco2)c(C)c1
- EC50 [18]: 195 µM (inactive)

Structure (SMILES): O=S(=O)(O)c1cc2oc(-c3ccccc3)nc2c2ccccc12
- AC50 (CAAX prenyl protease 2 [4]): 1.35 µM (active)
